Results on two compounds are retold here after PMC6982547 (Leukemia & lymphoma, 2019).

Like-named read-outs stand apart in the source and are kept apart here.

For series [1] the following is noted: cited from earlier work.
Series [2] concerns patients with relapsed/refractory lymphoid malignancies. Briefly: Phase 1 safety and tolerability: DLTs, MTD/RP2D, adverse events. The class given is in vivo, human.
Series [3] in a line: Alisertib pharmacokinetics in plasma. The class given is in vivo, human. The following applies: Schedule I, vorinostat 200 mg, alisertib 30 mg, day 7, N=1.
For another series, the system named is follicular lymphoma. Conditions: single agent, two phase 2 studies; cited from earlier work.
For series [4] the following is noted: human, in vivo.
A further series can be described thus: clinical. Conditions: human, in vivo; for AUC: AUC0-tau; for half-life: t½.
For series [5] the following is noted: previously published data; cited from earlier work.

On to `COc1cc(Nc2ncc3c(n2)-c2ccc(Cl)cc2C(c2c(F)cccc2OC)=NC3)ccc1C(=O)O` [Alisertib], for which, in series [1] (previous reports), the half-life was 14.9 h. In addition, in series [1] (previously published population estimate), the apparent clearance is recorded as 4.25 L/h. The “MTD of the combination, alisertib dose” value in series [2] (BID, with 200 mg vorinostat BID, intermittent dosing Schedule II) is reported as 20 mg. For the same compound, in series [2] (bid, intermittent schedule), the “recommended phase 2 dose (RP2D) of the combination, alisertib dose” value amounted to 20 mg. In series [3], the Cl/F came out at 1.68 L/h.

As to `O=C(CCCCCCC(=O)Nc1ccccc1)NO` [Vorinostat], the overall response rate in the series with follicular lymphoma is reported as 47-49%. Moreover, in series [4] (30 mg), the t½ is recorded as 2.38 (0.97) h. For the same compound, in series [4] (200 mg), the AUC0-tau is listed as 1.10 (0.44) μg/mL•h. The “MTD of the combination, vorinostat dose” value in series [2] (BID, with 20 mg alisertib BID, intermittent dosing Schedule II) is 200 mg. Moreover, the “recommended phase 2 dose (RP2D) of the combination, vorinostat dose” value in series [2] (bid, intermittent schedule) turned out to be 200 mg. Further, the AUC in the series “clinical” (20 mg) stood at 1030 ng·h/mL; in “clinical” (30 mg) it was 1850 ng·h/mL; in the series “clinical” (40 mg), 956 ng·h/mL; in the series “clinical” (200 mg) it was 1030 ng·h/mL. In addition, the Cmax in the series “clinical” (20 mg) came to 318 ng/mL; in the series “clinical” (30 mg) it was 560 ng/mL; in the series “clinical” (40 mg), 335 ng/mL; in the series “clinical” (200 mg) it was 391 ng/mL. Further, the results for the Tmax in the series “clinical” (20 mg), in the series “clinical” (30 mg) and in the series “clinical” (40 mg) were 2.25 h, 2.42 h and 0.98 h, respectively. The half-life in the series “clinical” (20 mg) was 2.16 h; in “clinical” (40 mg) it was 2.31 h; in the series “clinical” (200 mg), 2.19 h; in “clinical”, 2.3 h. In series [5], the clearance is given as 271 L/h.
